Our source for the Ki values is BindingDB's records for doi:10.1016/0960-894X(95)00583-F (1996).

As usually defined, the Ki is a dissociation constant, usually derived from enzyme kinetics or from competition with a known ligand. Low readings indicate tighter binding, high ones weaker binding.

This test in a line: Compound was evaluated for binding affinity against [3H]- Cl-DPDPE labeled Opioid receptor delta 1 in guinea-pig brain homogenate.
`O=C(/C=C/c1ccccc1)N[C@@H]1CC[C@@]2(O)[C@H]3Cc4ccc(O)c5c4[C@@]2(CCN3CC2CC2)[C@H]1O5` [17-Cyclopropylmethyl-3,14beta-dihydroxy-4,5alpha-epoxy-6beta-(cinnamoylamino)morphinan] yielded a Ki of 3.1 nM. `COC(=O)/C=C/C(=O)N[C@@H]1CC[C@@]2(O)[C@H]3Cc4ccc(O)c5c4[C@@]2(CCN3CC2CC2)[C@H]1O5` [Beta-Funeltrexamine] registered a Ki of 22 nM.

Compound `O=C(/C=C/c1ccc(Cl)cc1)N[C@@H]1CC[C@@]2(O)[C@H]3Cc4ccc(O)c5c4C2(CCN3CC2CC2)[C@H]1O5` [1N-[4-cyclopropylmethyl-10,17-dihydroxy-(5R,13R,14R,17S)-12-oxa-4-azapentacyclo[9.6.1.01,13.05,17.07,18]octadeca-7(18),8,10-trien-14-yl]-3-(4-chlorophenyl)-(E)-2-propenamide] gave a Ki of 5 nM. Under `O=C(/C=C/c1ccc([N+](=O)[O-])cc1)N[C@@H]1CC[C@@]2(O)[C@H]3Cc4ccc(O)c5c4C2(CCN3CC2CC2)[C@H]1O5` [1N-[4-cyclopropylmethyl-10,17-dihydroxy-(5R,13R,14R,17S)-12-oxa-4-azapentacyclo[9.6.1.01,13.05,17.07,18]octadeca-7(18),8,10-trien-14-yl]-3-(4-nitrophenyl)-(E)-2-propenamide] stands 5.1 nM.

With `Cc1ccc(/C=C/C(=O)N[C@@H]2CC[C@@]3(O)[C@H]4Cc5ccc(O)c6c5C3(CCN4CC3CC3)[C@H]2O6)cc1` [1N-[4-cyclopropylmethyl-10,17-dihydroxy-(5R,13R,14R,17S)-12-oxa-4-azapentacyclo[9.6.1.01,13.05,17.07,18]octadeca-7(18),8,10-trien-14-yl]-3-(4-methylphenyl)-(E)-2-propenamide], the Ki is 9.6 nM.
